Patent publication US7129213B2, “Tripeptides and tripeptide derivatives for the treatment of neurodegenerative diseases” (Neurotell AG, priority 2002, dated 2006)
Like-named read-outs stand apart in the source and are kept apart here. Blank lines part the entries; values can stand above or below the molecule they belong to.

How the values were obtained:
[1] = literature values; cited from earlier work
[2] = Metabolic stability in rat hepatocytes; format: in vitro ADME; conditions: male, Wistar, freshly isolated rat hepatocytes in suspension, 10^6 cells/ml, analysed over 24 h, read-out: T½ (converted)
Source text: Hepatocytes from adult male Wistar rats (IFFA Credo, L'Arbresle, France) were isolated by an in situ liver perfusion using collagenase (purchased from Sigma (St. Louis, Mo., U.S.A), according to a procedure described by Seglen (Preparation of isolated rat liver cell, Methods Cell Biol. 13, 29–83, 1976) and modified by Williams et al. (Rat hepatocyte primary culture. III. Improved dissociation and attachment techniques and the enhancement of survival by culture medium, in vitro 13: 809–817, 1977). After estimation of cell viability by the peripheral refractoriness of intact cells in phase contrast microscopy and the trypan blue test, freshly isolated hepatocytes were washed in basal William's medium E (WME) supplemented with 10% (v/v) fetal calf serum, 70 μM cortisol, 2 mM L-glutamine, 10 mM HEPES buffer, and 4 mM NaOH. […]
Each substance of each concentration will be analysed 10 times during 24 h (1 h, 2 h, 4 h, 6 h, 8 h, 10 h, 12 h, 16 h, 20 h, 24 h).

Molecule: C[C@]12CCC(=O)C=C1CC[C@@H]1[C@@H]2[C@@H](O)C[C@@]2(C)[C@H]1CC[C@]2(O)C(=O)CO [Hydrocortisone]
- flux rates published by Kansy et al. [1]: 52%

Molecule: CCNC(=O)[C@@H]1CCCN1C(=O)[C@H](Cc1ccccc1)NC(=O)[C@H]([C@@H](C)CC)N(CC)CC [N,N-Diethyl-Ile-Phe-ProNHEt, N,N-diethyl-isoleucyl-phenylalanyl-L-proline ethylamide]
- PAMPA classification, predicted absorption after peroral application (PAMPA): medium to highly absorbed

Molecule: CC[C@H](C)[C@H](NC(C)C)C(=O)N[C@H](C(=O)N1CCC[C@H]1C(N)=O)[C@@H](C)CC [N-Isopropyl-Ile-Ile-ProNH2]
- half-life [2]: 2.6 h
- PAMPA classification, predicted absorption after peroral application (PAMPA): medium to highly absorbed

Molecule: thyreoliberin [TRH, reference compound]
- Pampa Flux (%) Mean ± SEM (500 μM in Tris-buffer pH 7,4, diffusion time 16 h): <10%
- PAMPA classification, predicted absorption after peroral application (classification by flux rate): weakly absorbed

Now from value to molecule, other results behind:

- Pampa Flux (%) Mean ± SEM (PAMPA, 16 h, 500 μM, pH 7): 0%
Molecule: CC[N+](C)(C)Cc1ccccc1Br [Bretylium, reference compound]

- Pampa Flux (%) Mean ± SEM (PAMPA, 16 h, 500 μM, pH 7): 72 ± 2%
Molecule: O=c1ccc2ccccc2o1 [Coumarin, reference compound]
- flux rates published by Kansy et al. [1]: 66%

- PAMPA classification, predicted absorption after peroral application (PAMPA): medium to highly absorbed
Molecule: CC[C@H](C)[C@H](NC(=O)CN(CC)CC)C(=O)N1CCC[C@H]1C(N)=O [N,N-Diethyl-Gly-Ile-ProNH2]

- PAMPA classification, predicted absorption after peroral application (PAMPA): medium to highly absorbed
Molecule: CC[C@H](C)[C@H](NC(=O)[C@H]([C@@H](C)CC)N(CC)CC)C(=O)N1CCC[C@H]1C(N)=O [N,N-Diethyl-Ile-Ile-ProNH2, N,N-diethyl-isoleucyl-isoleucyl-prolineamide]
